# Literature values as cited in patent US20190350829A1, “AN ANTIMICROBIAL COMPOSITION” (Conopco, Inc., d/b/a UNILEVER, priority 2016, published 2019).
# Where two headings read alike, the source gives them in different places.
smiles,measurement,setting,value
CCCCC(C)CCC(=O)O (centres unmarked) [4-methyl octanoic acid],pKa,,4.89
same,pKa,listed as methyl caprylic acid,4.93
